{"source": "ChEMBL document CHEMBL1165981", "about": "“Identification of novel quinazolin-4(3H)-ones as inhibitors of thermolysin, the prototype of the M4 family of proteinases” (Bioorg Med Chem, 2010)", "key": {"Thermolysin [1]": {"target": "T1, Thermolysin (Bacillus thermoproteolyticus, UniProt P00800)", "T1 sequence (P00800 whole entry)": "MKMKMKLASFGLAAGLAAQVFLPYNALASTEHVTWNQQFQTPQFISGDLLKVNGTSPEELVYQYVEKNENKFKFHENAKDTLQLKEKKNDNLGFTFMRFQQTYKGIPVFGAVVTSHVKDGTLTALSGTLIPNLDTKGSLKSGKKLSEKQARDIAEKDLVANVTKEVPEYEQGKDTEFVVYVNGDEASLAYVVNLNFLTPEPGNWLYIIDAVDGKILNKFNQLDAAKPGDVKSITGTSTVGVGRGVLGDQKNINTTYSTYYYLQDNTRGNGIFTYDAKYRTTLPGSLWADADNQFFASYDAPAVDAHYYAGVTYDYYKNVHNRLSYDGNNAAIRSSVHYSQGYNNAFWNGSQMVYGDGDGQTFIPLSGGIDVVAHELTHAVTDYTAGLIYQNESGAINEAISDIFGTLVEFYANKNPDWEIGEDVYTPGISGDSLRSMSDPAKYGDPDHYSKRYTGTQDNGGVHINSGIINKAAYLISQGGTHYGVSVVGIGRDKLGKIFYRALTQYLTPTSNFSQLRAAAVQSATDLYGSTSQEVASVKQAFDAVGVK", "test": "Inhibition of Bacillus thermoproteolyticus thermolysin after 15 mins by microplate spectrophotometric analysis in presence of 1.0 mM substrate FaGLa; call rule not given here"}, "Thermolysin [2]": {"target": "T1, Thermolysin", "test": "Inhibition of Bacillus thermoproteolyticus thermolysin after 15 mins by microplate spectrophotometric analysis in presence of 0.5 to 2 mM substrate FaGLa"}}, "data": [{"compound": "Cc1nc2ccccc2c(=O)n1N", "values": [{"measurement": "IC50", "setting": "Thermolysin [1]; read-out: IC50", "result": 54.9, "unit": "µM"}, {"measurement": "Ki", "setting": "Thermolysin [2]", "result": 54.9, "unit": "µM"}]}, {"compound": "Nn1c(C(F)(F)F)nc2ccccc2c1=O", "values": [{"measurement": "IC50", "setting": "Thermolysin [1]; read-out: IC50", "result": 37.9, "unit": "µM"}, {"measurement": "Ki", "setting": "Thermolysin [2]", "result": 37.9, "unit": "µM"}]}, {"compound": "NNc1nc2ccccc2c(=O)n1N", "values": [{"measurement": "IC50", "setting": "Thermolysin [1]", "result": "Not Active"}]}, {"compound": "O=c1c2ccccc2ncn1CCO", "values": [{"measurement": "IC50", "setting": "Thermolysin [1]", "result": "Not Active"}]}, {"compound": "Cc1nc2ccccc2c(=O)n1N=C(N)N", "values": [{"measurement": "IC50", "setting": "Thermolysin [1]", "result": "Not Active"}]}, {"compound": "Cc1nc2ccccc2c(=O)n1NC(=O)CCl", "values": [{"measurement": "IC50", "setting": "Thermolysin [1]", "result": "Not Active"}]}, {"compound": "O=c1[nH]c(-c2ccc(Cl)cc2)nc2ccccc12", "values": [{"measurement": "IC50", "setting": "Thermolysin [1]; read-out: IC50", "result": 1.25, "unit": "µM"}, {"measurement": "Ki", "setting": "Thermolysin [2]", "result": 1.25, "unit": "µM"}]}, {"compound": "CC(=O)Nn1c(-c2ccccc2)nc2ccccc2c1=O", "values": [{"measurement": "IC50", "setting": "Thermolysin [1]", "result": "Not Active"}]}, {"compound": "Cc1cc(C)c(-n2c(-c3ccccc3)nc3ccccc3c2=O)c(C)c1", "values": [{"measurement": "IC50", "setting": "Thermolysin [1]", "result": "Not Active"}]}, {"compound": "Cc1nc2ccccc2c(=O)n1CCO", "values": [{"measurement": "IC50", "setting": "Thermolysin [1]", "result": "Not Active"}]}, {"compound": "O=C(Nc1ccccc1C(=O)NCCCn1c(-c2ccccc2)nc2ccccc2c1=O)c1ccccc1", "values": [{"measurement": "IC50", "setting": "Thermolysin [1]", "result": "Not Active"}]}, {"compound": "CO/C(C)=N/n1c(-c2ccccc2)nc2ccccc2c1=O", "values": [{"measurement": "IC50", "setting": "Thermolysin [1]; read-out: IC50", "result": 123000, "unit": "µM"}, {"measurement": "Ki", "setting": "Thermolysin [2]", "result": 106000, "unit": "µM"}]}, {"compound": "Cc1nc2ccccc2c(=O)n1NC(=O)c1ccccc1", "values": [{"measurement": "IC50", "setting": "Thermolysin [1]", "result": "Not Active"}]}, {"compound": "CC(C)=NN1C(=O)c2ccccc2NC1(C)C", "values": [{"measurement": "IC50", "setting": "Thermolysin [1]; read-out: IC50", "result": 0.248, "unit": "µM"}, {"measurement": "Ki", "setting": "Thermolysin [2]", "result": 0.243, "unit": "µM"}]}, {"compound": "O=C1c2ccccc2NC(c2ccccc2)N1/N=C/c1ccccc1", "note": "(stereo unspecified)", "values": [{"measurement": "IC50", "setting": "Thermolysin [1]", "result": "Not Active"}]}, {"compound": "O=c1c2ccccc2nc2n1NC(c1ccccc1)N(/N=C/c1ccccc1)C2", "note": "(stereo unspecified)", "values": [{"measurement": "IC50", "setting": "Thermolysin [1]", "result": "Not Active"}]}, {"compound": "C/C(=N\\n1c(-c2ccccc2)nc2ccccc2c1=O)Nc1cccc2ccccc12", "values": [{"measurement": "IC50", "setting": "Thermolysin [1]", "result": "Not Active"}]}, {"compound": "CCc1nc2ccccc2c(=O)[nH]1", "values": [{"measurement": "IC50", "setting": "Thermolysin [1]", "result": "Not Active"}]}, {"compound": "O=c1[nH]c(-c2ccc([N+](=O)[O-])cc2)nc2ccccc12", "values": [{"measurement": "IC50", "setting": "Thermolysin [1]", "result": "Not Active"}]}, {"compound": "Cc1ccc(C(=O)Nn2c(C)nc3ccccc3c2=O)cc1", "values": [{"measurement": "IC50", "setting": "Thermolysin [1]", "result": "Not Active"}]}, {"compound": "CCOC(=O)Cc1nc2ccccc2c(=O)[nH]1", "values": [{"measurement": "IC50", "setting": "Thermolysin [1]", "result": "Not Active"}]}, {"compound": "COC(=O)c1ccccc1NC(=O)C(F)(F)F", "values": [{"measurement": "IC50", "setting": "Thermolysin [1]", "result": "Not Active"}]}, {"compound": "O=c1c2ccccc2nc(C(F)(F)F)n1-c1ccccc1", "values": [{"measurement": "IC50", "setting": "Thermolysin [1]; read-out: IC50", "result": 0.0115, "unit": "µM"}, {"measurement": "Ki", "setting": "Thermolysin [2]", "result": 0.0115, "unit": "µM"}]}, {"compound": "Cc1ccc(-c2nc3ccccc3c(=O)n2CCCN)cc1", "values": [{"measurement": "IC50", "setting": "Thermolysin [1]", "result": "Not Active"}]}, {"compound": "Nn1c(-c2ccc(Cl)cc2)nc2ccccc2c1=O", "values": [{"measurement": "IC50", "setting": "Thermolysin [1]; read-out: IC50", "result": 12700, "unit": "µM"}, {"measurement": "Ki", "setting": "Thermolysin [2]", "result": 10100, "unit": "µM"}]}, {"compound": "Nn1c(-c2ccccc2)nc2ccccc2c1=O", "values": [{"measurement": "IC50", "setting": "Thermolysin [1]", "result": "Not Active"}]}, {"compound": "Cc1ccc(-c2nc3ccccc3c(=O)n2-c2nccs2)cc1", "values": [{"measurement": "IC50", "setting": "Thermolysin [1]; read-out: IC50", "result": 76.8, "unit": "µM"}, {"measurement": "Ki", "setting": "Thermolysin [2]", "result": 59.3, "unit": "µM"}]}, {"compound": "O=c1c2ccccc2nc(-c2ccccc2)n1-c1nccs1", "values": [{"measurement": "IC50", "setting": "Thermolysin [1]", "result": "Not Active"}]}, {"compound": "Nn1c(-c2ccc([N+](=O)[O-])cc2)nc2ccccc2c1=O", "values": [{"measurement": "IC50", "setting": "Thermolysin [1]; read-out: IC50", "result": 3120, "unit": "µM"}, {"measurement": "Ki", "setting": "Thermolysin [2]", "result": 3120, "unit": "µM"}]}, {"compound": "O=c1c2ccccc2nc(-c2ccccc2)n1-c1ccc(I)cc1", "values": [{"measurement": "IC50", "setting": "Thermolysin [1]", "result": "Not Active"}]}, {"compound": "Cc1ccc(-c2nc3ccccc3c(=O)n2CCN)cc1", "values": [{"measurement": "IC50", "setting": "Thermolysin [1]", "result": "Not Active"}]}, {"compound": "CC(=O)Nn1c(C)nc2ccccc2c1=O", "values": [{"measurement": "IC50", "setting": "Thermolysin [1]", "result": "Not Active"}]}]}
